{"source": "patent US20090247475A1", "about": "“METHODS AND COMPOSITIONS RELATING TO PHARMACOGENETICS OF DIFFERENT GENE VARIANTS IN THE CONTEXT OF IRINOTECAN-BASED THERAPIES” (The Regents of the University of California, priority 2004, published 2009)", "key": {"[1]": {"conditions": "cited from earlier work"}, "[2]": {"molecular_target": "T1, SLCO1B1*15 (N130D and V174A) (Homo sapiens, UniProt Q9Y6L6, N130D/V174A)", "T1 sequence (Q9Y6L6 1-691 N130D/V174A)": "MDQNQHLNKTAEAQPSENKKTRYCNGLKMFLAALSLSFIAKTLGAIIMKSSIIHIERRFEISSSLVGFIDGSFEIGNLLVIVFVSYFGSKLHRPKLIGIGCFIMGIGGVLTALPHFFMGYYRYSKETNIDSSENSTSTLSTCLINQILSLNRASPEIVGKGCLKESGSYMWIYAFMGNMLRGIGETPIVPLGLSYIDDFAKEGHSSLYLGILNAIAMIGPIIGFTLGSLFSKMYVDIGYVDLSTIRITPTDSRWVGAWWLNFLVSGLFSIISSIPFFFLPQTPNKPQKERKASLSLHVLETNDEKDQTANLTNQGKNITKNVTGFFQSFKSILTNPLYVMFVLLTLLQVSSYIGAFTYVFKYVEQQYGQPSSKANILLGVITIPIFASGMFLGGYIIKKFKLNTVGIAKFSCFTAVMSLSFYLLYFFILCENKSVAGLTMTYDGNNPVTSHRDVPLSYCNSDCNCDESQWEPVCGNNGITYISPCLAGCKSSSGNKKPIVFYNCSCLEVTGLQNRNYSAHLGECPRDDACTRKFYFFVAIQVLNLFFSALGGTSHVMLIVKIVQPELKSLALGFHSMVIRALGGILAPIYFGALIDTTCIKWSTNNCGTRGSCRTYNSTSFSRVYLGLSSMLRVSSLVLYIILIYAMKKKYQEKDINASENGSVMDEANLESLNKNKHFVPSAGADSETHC", "conditions": "among the variants examined; cited from earlier work"}, "[3]": {"conditions": "human, in vivo", "description": "(§1) Sixty-four adults (48 Caucasians, 10 African-Americans, 4 Hispanics, and 2 others) with refractory solid tumors took part in the pharmacogenetic study.\n(§2) After visual inspection of the graphical plots of AUC and ratios stratified by genotype, t test analysis was applied to the data showing the possible presence of an inter-genotype difference in irinotecan pharmacokinetics.\n(§3) Two SNPs in SLCO1B1 [*1b (388A>G) and *5 (521T>C)] were also genotyped."}, "[4]": {"conditions": "early single agent trials; fraction of patients; cited from earlier work"}, "OATP1B1": {"molecular_target": "T2, OATP1B1 (Homo sapiens, UniProt Q9Y6L6)", "T2 sequence (Q9Y6L6 1-691)": "T1 sequence (Q9Y6L6 1-691 N130D/V174A) with D130N, A174V", "conditions": "cited from earlier work"}, "[5]": {"assay": "Irinotecan pharmacokinetics (AUC, noncompartmental analysis) in cancer patients stratified by genotype", "description": "as §1, §2, §3"}, "[6]": {"conditions": "OATP1B1*1a and three common variants"}}, "note": "Changes are numbered by the printed parent chain. Read-outs that look alike come from different tables or passages of the source.", "data": [{"smiles": "CC[C@H](C)C(=O)O[C@H]1C[C@H](O)C=C2C=C[C@H](C)[C@H](CC[C@@H](O)C[C@@H](O)CC(=O)O)[C@H]21", "note": "[pravastatin]", "values": [{"measurement": "Mean pravastatin AUC0-12 higher compared to non-carriers", "setting": "[1]; heterozygous carriers of *15B", "result": 93, "unit": "%"}, {"measurement": "Mean pravastatin AUC0-12 higher compared to non-carriers", "setting": "[1]; heterozygous carriers of *17", "result": 130, "unit": "%"}, {"measurement": "Mean pravastatin AUC0-12 higher compared to reference genotype", "setting": "[1]; subjects with SLCO1B1 -11187GA genotype", "result": 98, "unit": "%"}, {"measurement": "Transport activity of SLCO1B1*15 variant", "setting": "[2]", "result": "decreased transport activities"}]}, {"smiles": "CCc1c2c(nc3ccc(OC(=O)N4CCC(N5CCCCC5)CC4)cc13)-c1cc3c(c(=O)n1C2)COC(=O)[C@]3(O)CC", "note": "[irinotecan, Irinotecan]", "values": [{"measurement": "Effect of SLCO1B1*5 variant on patient exposure (AUC)", "setting": "[3]", "result": "increase in irinotecan AUC"}, {"measurement": "Frequency of grade 3-4 diarrhea", "setting": "[4]", "result": "about one third"}, {"measurement": "Transport by OATP1B1", "setting": "OATP1B1; [6]", "result": "not transported"}, {"measurement": "Effect of SLCO1B1*1b allele on plasma disposition", "setting": "[5]; human, in vivo", "result": "no effect"}]}, {"smiles": "C[C@]12CC[C@@H]3c4ccc(OS(=O)(=O)O)cc4CC[C@H]3[C@@H]1CCC2=O", "note": "[estrone-3-sulfate]", "values": [{"measurement": "Transport activity of SLCO1B1*15 variant", "setting": "[2]", "result": "decreased transport activities"}]}, {"smiles": "CCc1c2c(nc3ccc(O)cc13)-c1cc3c(c(=O)n1C2)COC(=O)[C@]3(O)CC", "note": "[SN-38, 7-ethyl-10-hydroxycamptothecin]", "values": [{"measurement": "Transport by OATP1B1", "setting": "OATP1B1; [6]", "result": "transport activity for SN-38 was observed"}, {"measurement": "Inhibition of SLCO1B1-mediated uptake of [(3)H]estrone-3-sulfate", "setting": "OATP1B1", "result": "significant inhibitory effect"}, {"measurement": "Transport activity of SLCO1B1*15 variant", "setting": "[2]", "result": "decreased transport activities"}, {"measurement": "AUC in ABCC2 3972 TT patients compared to CT and CC patients", "setting": "[5]; 350 mg/m^2 IV irinotecan, SN-38 and SN-38G analysed in 6/6 and 6/7 UGT1A1 genotype patients", "result": "No significant correlation"}]}, {"smiles": "CCc1c2c(nc3ccc(O[C@@H]4O[C@H](C(=O)O)[C@@H](O)[C@H](O)[C@H]4O)cc13)-c1cc3c(c(=O)n1C2)COC(=O)[C@]3(O)CC", "note": "[SN-38G, 10O-glucuronyl-SN-38]", "values": [{"measurement": "Effect of SLCO1B1*5 variant on patient exposure (AUC)", "setting": "[3]", "result": "not affected"}, {"measurement": "Transport by OATP1B1", "setting": "OATP1B1", "result": "not transported"}]}]}
